Experimental data published in paper PMC7717616, “A nanobody-derived mimotope against VEGF inhibits cancer angiogenesis” (Journal of Enzyme Inhibition and Medicinal Chemistry, 2020).
Read-outs that look alike come from different tables or passages of the source. Square brackets hold non-standard residues; d marks the D form. Ends that are not written are not given here. Abu = CC[C@H](N)C(=O)O

Legend:
[1] = tested on: HUVEC cells; assay: Tube formation assay with HUVEC cells and VEGF; type: cell-based; conditions: HUVEC on Geltrex, nanobody/peptide 1000 nM, VEGF 50 ng/ml, 4–8 h, 37 °C; control with VEGF alone formed complete tubes; Image J
Description: About 50 µl of Geltrex LDEV lacking growth factor (Gibco, Invitrogen) were added to 96-well plate followed by a 30–60 min period of incubation at a temperature of 37 °C. One thousands nM of nanobody and peptide were added in two separate microtubes. Then, 50 ng/ml of VEGF were added to the tubes and incubated at a temperature of 37 °C for 1 h. Bevacizumab was as positive control. About 10^4 of HUVEC cells with DMEM culture media plus each microtube’s mixture were seeded in 96-well plates containing Geltrex. Plates were incubated for 4–8 h (temperature of 37 °C in the presence of 5% CO2). After incubation, cells were assessed according to their conditions of tube formation, and tube-like structures analysed by Image J software.
(§1) Prism 5.0 Software (GraphPad, San Diego, CA) was used for statistical analysis. T test was performed for comparison between two groups. The statistical were considered significant when p values < .05.

[2] = tested on: HUVEC cells; assay: MTT assay, inhibition of HUVEC proliferation; type: cell-based; conditions: for IC50: HUVEC growth; for inhibition of cell growth, 24 h / inhibition of cell growth, 48 h: 1000 nM
Description: The HUVEC cell line was purchased from the Pasteur Institute of Iran and was transferred in DMEM media enriched with 10% Foetal Bovine Serum (FBS, Gibco). The cells were then added into T25 cell culture flasks and incubated at a temperature of 37 °C in the presence of 5% CO2. After 3–5 days, confluency of the cells was assessed. At 90% of confluency, cells were removed from the flask by trypsin treatment until their use in following experiments.
About 10^4 of HUVEC cells were suspended in […] of culture media enriched with 2% FBS, and were then transferred to 96-well plates, followed by an incubation at a temperature of 37 °C for 2 h. After incubation at a temperature of 37 °C in the presence of 5% CO2, various concentrations of nanobody and peptide (0–1000 nM) were added to cells, followed by an incubation for 24 and 48 h, respectively. Bevacizumab was used as positive control. After incubation, an MTT (3–(4,5-Dimethylthiazol-2-yl)-2,5-Diphenyltetrazolium Bromide) solution was added to each well and incubated for 4 h. Thereafter, MTT was removed and DMSO (dimethylsulfoxide) was added to the wells. Plates were incubated on shaker for 30 min, and optical densities (OD) were then measured using a spectrophotometer (Epoch).
as §1

[3] = 0–1000 nM, 24 h, read-out: IC50 (24 h)
[4] = 0–1000 nM, 48 h, read-out: IC50 (48 h)

Row | Substance | tube-like structures formed [1] [%] | IC50 [2, 3] [nM] | IC50 [2, 4] [nM] | inhibition of cell growth, 24 h ([2]; HUVEC, 24 h) [%] | inhibition of cell growth, 48 h ([2]; HUVEC, 48 h) [%] | dose dependence of inhibition of cellular proliferation (in words) ([2]; HUVEC, 0–1000 nM) | time dependence of effect (in words) ([2]; HUVEC, 24 and 48 h)
1 | Bevacizumab: Bevacizumab (positive control) | 20 | 200 | 150 | 87 | 97 | – | –
2 | YY[Abu]AARAWSPYSSTVDAGDFRYWGQ-NH2 [peptide, designed 25-mer peptide from the CDR3 region of the VEGF nanobody] | 35 | 350 | 200 | 77 | 91 | dose dependent | time dependent
